Common to all, as to assay: NCI tumour cell line growth inhibition, 48 h
Experiment [1] has as its system LOX IMVI melanoma.
In experiment [2] the test system is DMS 273 small cell lung.
Experiment [3] concerns KM20L2 colon.
In experiment [4] the test system is M19-MEL melanoma.
For experiment [5], the system named is NCI-H460 lung.
Experiment [6] concerns ACHN renal.
The subject of experiment [7] is OVCAR-5 ovarian.
In experiment [8] the test system is XF 498 CNS.
Experiment [9] concerns DLD-1 colon.
The test system of experiment [10] is DMS 114 small cell lung.
For experiment [11], the system named is UACC-62 melanoma.
The subject of experiment [12] is 786-0 renal.
Experiment [13] concerns SNB-78 CNS.
In experiment [14] the test system is LXFL 529 NSCLC.
Experiment [15] relates to HOP-18 NSCLC.
Experiment [16] deals with T-47D breast.

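Where inhibition never reached the appropriate level, the endpoint shown equals the highest concentration tested. Otherwise, values were interpolated linearly from a five-concentration, 48-hour dose response in 96-well plates. TGI denotes the concentration required for complete inhibition of growth.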

The values below come from PubChem BioAssay (NCI).

Turning to `COc1c(C)c2c(c(C)c1Cl)Oc1c(C=O)c(O)c(Cl)c(C)c1C(=O)O2`, the TGI in experiment [1] is 90.7 µM; in [2] it was 70.5 µM; in experiment [3], 82.9 µM; in [4] it was greater than 100 µM; in experiment [5], greater than 100 µM; in experiment [6], 69.7 µM. For the same molecule, the TGI was 78.8 µM in experiment [7]; 22.7 µM in [8]; greater than 100 µM in [9]; 79.1 µM in [10]; 63 µM in [11]; greater than 100 µM in experiment [12]. The TGI in [13] was 54.7 µM; in experiment [14] it was 82.9 µM.
Take `Cc1ccc2c(c1CCCC(C)(C)O)C(=O)C(=O)C(C(C)C)=C2O`: the TGI in experiment [2], in experiment [3], in experiment [4], in experiment [5], in experiment [15] and in experiment [6] was greater than 100 µM throughout. Besides, the TGI in [9], in experiment [10], in experiment [12] and in [14] was greater than 100 µM in each case.
On to `Cc1cn(C2CC(N(O)Cc3ccccc3)C(CO)O2)c(=O)[nH]c1=O` (configuration not stated), for which the TGI in experiment [1], in experiment [2], in experiment [3], in experiment [4], in [5] and in experiment [6] was greater than 100 µM throughout. Also, the TGI in experiment [7], in experiment [8], in experiment [10], in experiment [11], in [12] and in [13] was greater than 100 µM in each case. Besides, the TGI in experiment [14] was greater than 100 µM.
Consider `O=c1[nH]cc(COCC(F)(F)C(F)(F)C(F)(F)C(F)F)c(=O)[nH]1`, for which the TGI in experiment [1], in [3], in [4], in experiment [15], in experiment [6] and in experiment [7] was greater than 100 µM each time. Moreover, the TGI in experiment [9], in experiment [10], in experiment [11], in experiment [12] and in experiment [14] was greater than 100 µM throughout.
For `Cc1cn2c(=O)c3ccccc3nc2s1`, the TGI in experiment [1], in experiment [2], in experiment [3], in experiment [4], in [5] and in [6] was greater than 100 µM each time. The TGI in experiment [7], in [9], in [10], in [11], in experiment [12] and in [13] was greater than 100 µM each time. Also, the TGI in experiment [14] is greater than 100 µM.
Take `N#CC(NNC(=O)Cc1ccccc1)c1ccccc1O` (configuration not stated): the TGI was 31.5 µM in [1]; greater than 100 µM in experiment [2]; 27 µM in experiment [4]; greater than 100 µM in experiment [5]; 74.9 µM in experiment [15]; 43.8 µM in [6]. Further, the TGI in experiment [7] is greater than 90.9 µM; in [9], greater than 100 µM; in [16], greater than 65.3 µM; in experiment [11], 28.8 µM; in experiment [12] it was 72.5 µM; in experiment [13], greater than 100 µM. Further, the TGI in experiment [14] is greater than 100 µM.
As to `NC(CCC(=O)NC(CSC(=O)N(O)c1ccc(Br)cc1)C(=O)NCC(=O)O)C(=O)O` (configuration not stated), the TGI in experiment [1], in experiment [2], in [3], in [4], in experiment [5] and in experiment [15] was greater than 100 µM in each case. Moreover, the TGI in [6], in experiment [7], in experiment [9], in experiment [10], in experiment [11] and in experiment [12] was greater than 100 µM in each case. Moreover, the TGI in [13] and in experiment [14] was greater than 100 µM each time.
With `CC(=O)N(C(=O)CC(=O)N/N=C\c1ccc(Br)c(N(CCC#N)CCC#N)c1)c1ccc(Cl)cc1`, the TGI is greater than 100 µM in experiment [1]; greater than 100 µM in [5]; greater than 100 µM in experiment [6]; 55.9 µM in experiment [7]; greater than 100 µM in [16]; greater than 100 µM in [11]. This molecule returned a TGI in experiment [12] greater than 100 µM.
As to `O=C(O)c1nc(-c2ccccn2)c(-c2ccccn2)nc1C(=O)O`, the TGI amounted to 16.7 µM in experiment [1]; 4.85 µM in experiment [5]; 7.35 µM in experiment [6]; 18.3 µM in experiment [7]; 24.1 µM in experiment [16]; 6.27 µM in experiment [11]. The molecule also yielded a TGI in experiment [12] of 13.2 µM.
For `Cc1ccc(C2CC(c3ccco3)=NN2c2ccccc2)o1` (configuration not stated), the TGI in [1], in [2], in experiment [3], in [4], in [5] and in [6] was greater than 100 µM throughout. Further, the TGI in experiment [7], in experiment [8], in [10], in [11], in experiment [12] and in experiment [13] was greater than 100 µM throughout. In experiment [14], this molecule had a TGI greater than 100 µM.
Consider `COc1cccc(CCn2c(N)c(-c3ccccc3)c3ccc([N+](=O)[O-])cc3c2=O)c1`, for which the TGI is 6.53 µM in experiment [1]; 30 µM in experiment [5]; 15 µM in experiment [6]; 46.9 µM in experiment [7]; 5.6 µM in experiment [16]; 30.7 µM in experiment [11]. Further, in experiment [12], the TGI was 19.4 µM.
